ChEMBL document CHEMBL2074249, “Fruit juices inhibit organic anion transporting polypeptide-mediated drug uptake to decrease the oral availability of fexofenadine” (Clin Pharmacol Ther, 2002)
Values belong to the compound of their own block, whether it stands above or below them.

Columns and labels:
Assay type in all cases: functional, cell-based
[1] = target: T1, Oatp3 (Solute carrier organic anion transporter family member 1A5) (Rattus norvegicus, UniProt O88397); test: TP_TRANSPORTER: inhibition of Fexofenadine uptake (Fexofenadine: 1? uM, 6',7'-Dihydroxybergamottin: 50 uM) in Oatp3-expressing HeLa cells; parameters: scale not given: the % may be the effect or the level left; settings: human, HeLa cells that express Oatp3, probe fexofenadine; read-out: Activity
T1 sequence (O88397 whole entry): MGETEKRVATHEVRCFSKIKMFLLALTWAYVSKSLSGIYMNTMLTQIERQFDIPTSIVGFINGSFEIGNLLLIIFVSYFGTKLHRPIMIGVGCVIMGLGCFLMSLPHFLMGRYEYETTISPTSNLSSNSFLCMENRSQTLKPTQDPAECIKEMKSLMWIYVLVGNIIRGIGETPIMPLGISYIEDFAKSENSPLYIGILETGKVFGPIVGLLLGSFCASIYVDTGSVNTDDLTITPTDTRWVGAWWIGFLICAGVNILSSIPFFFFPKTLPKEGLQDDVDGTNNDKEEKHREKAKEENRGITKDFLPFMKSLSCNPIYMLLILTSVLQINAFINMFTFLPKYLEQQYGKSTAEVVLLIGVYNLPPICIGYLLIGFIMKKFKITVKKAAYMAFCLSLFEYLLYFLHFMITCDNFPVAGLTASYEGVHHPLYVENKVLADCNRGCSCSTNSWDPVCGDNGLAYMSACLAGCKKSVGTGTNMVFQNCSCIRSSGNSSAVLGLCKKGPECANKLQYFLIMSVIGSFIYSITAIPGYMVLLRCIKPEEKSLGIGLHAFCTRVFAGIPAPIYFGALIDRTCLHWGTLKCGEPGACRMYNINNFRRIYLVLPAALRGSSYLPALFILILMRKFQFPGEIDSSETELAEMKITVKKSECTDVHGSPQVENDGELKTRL

[2] = target: T1, Oatp3 (Solute carrier organic anion transporter family member 1A5); test: TP_TRANSPORTER: inhibition of Fexofenadine uptake (Fexofenadine: 1? uM, Bergamottin: 50 uM) in Oatp3-expressing HeLa cells; parameters: scale not given: the % may be the effect or the level left; settings: human, HeLa cells that express Oatp3, probe fexofenadine; read-out: Activity
[3] = target: T1, Oatp3 (Solute carrier organic anion transporter family member 1A5); test: TP_TRANSPORTER: inhibition of Fexofenadine uptake (Fexofenadine: 1? uM, 5-Methoxypsoralen: 50 uM) in Oatp3-expressing HeLa cells; parameters: scale not given: the % may be the effect or the level left; settings: human, HeLa cells that express Oatp3, probe fexofenadine; read-out: Activity
[4] = target: T1, Oatp3 (Solute carrier organic anion transporter family member 1A5); test: TP_TRANSPORTER: inhibition of Fexofenadine uptake (Fexofenadine: 1? uM, Hesperitin: 5 uM) in Oatp3-expressing HeLa cells; parameters: scale not given: the % may be the effect or the level left; settings: human, HeLa cells that express Oatp3, probe fexofenadine; read-out: Activity
[5] = target: T1, Oatp3 (Solute carrier organic anion transporter family member 1A5); test: TP_TRANSPORTER: inhibition of Fexofenadine uptake (Fexofenadine: 1? uM, Hesperidin: 50 uM) in Oatp3-expressing HeLa cells; parameters: scale not given: the % may be the effect or the level left; settings: human, HeLa cells that express Oatp3, probe fexofenadine; read-out: Activity
[6] = target: T1, Oatp3 (Solute carrier organic anion transporter family member 1A5); test: TP_TRANSPORTER: inhibition of Fexofenadine uptake (Fexofenadine: 1? uM, Naringenin: 50 uM) in Oatp3-expressing HeLa cells; parameters: scale not given: the % may be the effect or the level left; settings: human, HeLa cells that express Oatp3, probe fexofenadine; read-out: Activity
[7] = target: T1, Oatp3 (Solute carrier organic anion transporter family member 1A5); test: TP_TRANSPORTER: inhibition of Fexofenadine uptake (Fexofenadine: 1? uM, Naringin: 5 uM) in Oatp3-expressing HeLa cells; parameters: scale not given: the % may be the effect or the level left; settings: human, HeLa cells that express Oatp3, probe fexofenadine; read-out: Activity
[8] = target: T1, Oatp3 (Solute carrier organic anion transporter family member 1A5); test: TP_TRANSPORTER: inhibition of Fexofenadine uptake (Fexofenadine: 1? uM, Quercetin: 5 uM) in Oatp3-expressing HeLa cells; parameters: scale not given: the % may be the effect or the level left; settings: human, HeLa cells that express Oatp3, probe fexofenadine; read-out: Activity
[9] = target: T2, Solute carrier organic anion transporter family member 1A1 (Rattus norvegicus, UniProt P46720); test: TP_TRANSPORTER: inhibition of Fexofenadine uptake (Fexofenadine: 1 uM, Apple juice: 5 %) in Oatp1-expressing HeLa cells; settings: human
T2 sequence (P46720 whole entry): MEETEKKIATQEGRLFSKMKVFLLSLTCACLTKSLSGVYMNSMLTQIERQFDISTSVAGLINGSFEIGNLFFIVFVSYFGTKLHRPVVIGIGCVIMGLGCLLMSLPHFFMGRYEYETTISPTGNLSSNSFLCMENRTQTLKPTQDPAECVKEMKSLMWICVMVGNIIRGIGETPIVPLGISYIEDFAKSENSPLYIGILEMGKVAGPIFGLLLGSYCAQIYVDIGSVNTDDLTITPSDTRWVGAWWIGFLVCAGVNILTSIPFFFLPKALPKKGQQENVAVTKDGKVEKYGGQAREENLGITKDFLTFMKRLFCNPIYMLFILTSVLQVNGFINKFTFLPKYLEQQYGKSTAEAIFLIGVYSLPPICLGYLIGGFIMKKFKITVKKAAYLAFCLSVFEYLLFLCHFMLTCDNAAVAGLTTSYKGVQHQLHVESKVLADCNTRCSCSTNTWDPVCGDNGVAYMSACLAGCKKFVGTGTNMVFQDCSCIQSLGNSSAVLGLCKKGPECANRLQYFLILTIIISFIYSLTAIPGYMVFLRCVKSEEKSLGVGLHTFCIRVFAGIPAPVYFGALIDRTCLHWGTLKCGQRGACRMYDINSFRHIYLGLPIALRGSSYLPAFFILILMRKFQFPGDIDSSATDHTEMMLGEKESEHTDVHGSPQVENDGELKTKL

[10] = target: T3, Solute carrier organic anion transporter family member 1A5 (Rattus norvegicus, UniProt O88397); test: TP_TRANSPORTER: inhibition of Fexofenadine uptake (Fexofenadine: 1 uM, Apple juice: 5 %) in Oatp3-expressing HeLa cells; settings: human
T3 sequence (O88397 whole entry): T1 sequence (O88397 whole entry)

[11] = target: T4, Solute carrier organic anion transporter family member 1A2 (Homo sapiens, UniProt P46721); test: TP_TRANSPORTER: inhibition of Fexofenadine uptake (Fexofenadine: 1 uM, Grapefruit juice: 5 %) in OATP-A-expressing HeLa cells
T4 sequence (P46721 whole entry): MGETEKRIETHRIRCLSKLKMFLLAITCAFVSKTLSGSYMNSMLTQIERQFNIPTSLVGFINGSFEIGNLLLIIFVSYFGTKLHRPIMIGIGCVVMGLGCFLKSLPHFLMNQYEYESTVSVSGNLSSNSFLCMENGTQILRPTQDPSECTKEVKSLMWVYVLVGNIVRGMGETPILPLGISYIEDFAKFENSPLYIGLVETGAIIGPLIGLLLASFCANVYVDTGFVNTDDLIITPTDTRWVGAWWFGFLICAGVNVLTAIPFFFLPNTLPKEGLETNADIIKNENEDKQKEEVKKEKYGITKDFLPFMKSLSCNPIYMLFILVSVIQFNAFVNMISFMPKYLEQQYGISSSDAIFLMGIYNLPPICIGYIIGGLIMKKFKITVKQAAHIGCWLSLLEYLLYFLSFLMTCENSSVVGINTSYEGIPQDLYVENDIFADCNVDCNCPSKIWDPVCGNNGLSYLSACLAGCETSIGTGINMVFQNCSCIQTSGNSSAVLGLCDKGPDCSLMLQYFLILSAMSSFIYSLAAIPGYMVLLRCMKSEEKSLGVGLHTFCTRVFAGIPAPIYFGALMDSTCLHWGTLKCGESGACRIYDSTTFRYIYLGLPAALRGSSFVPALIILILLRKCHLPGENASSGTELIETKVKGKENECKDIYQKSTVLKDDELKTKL

[12] = target: T2, Solute carrier organic anion transporter family member 1A1; test: TP_TRANSPORTER: inhibition of Fexofenadine uptake (Fexofenadine: 1 uM, Grapefruit juice: 5 %) in Oatp1-expressing HeLa cells; settings: human
[13] = target: ATP-dependent translocase ABCB1 (Homo sapiens, UniProt P08183); test: TP_TRANSPORTER: inhibition of Vinblastine transepithelial transport (basal to apical) (Vinblastine: 5 uM, Grapefruit juice: 5 %) in MDR1-expressing LLC-PK1 cells; settings: pig
Chain of ATP-dependent translocase ABCB1 (P08183 whole entry): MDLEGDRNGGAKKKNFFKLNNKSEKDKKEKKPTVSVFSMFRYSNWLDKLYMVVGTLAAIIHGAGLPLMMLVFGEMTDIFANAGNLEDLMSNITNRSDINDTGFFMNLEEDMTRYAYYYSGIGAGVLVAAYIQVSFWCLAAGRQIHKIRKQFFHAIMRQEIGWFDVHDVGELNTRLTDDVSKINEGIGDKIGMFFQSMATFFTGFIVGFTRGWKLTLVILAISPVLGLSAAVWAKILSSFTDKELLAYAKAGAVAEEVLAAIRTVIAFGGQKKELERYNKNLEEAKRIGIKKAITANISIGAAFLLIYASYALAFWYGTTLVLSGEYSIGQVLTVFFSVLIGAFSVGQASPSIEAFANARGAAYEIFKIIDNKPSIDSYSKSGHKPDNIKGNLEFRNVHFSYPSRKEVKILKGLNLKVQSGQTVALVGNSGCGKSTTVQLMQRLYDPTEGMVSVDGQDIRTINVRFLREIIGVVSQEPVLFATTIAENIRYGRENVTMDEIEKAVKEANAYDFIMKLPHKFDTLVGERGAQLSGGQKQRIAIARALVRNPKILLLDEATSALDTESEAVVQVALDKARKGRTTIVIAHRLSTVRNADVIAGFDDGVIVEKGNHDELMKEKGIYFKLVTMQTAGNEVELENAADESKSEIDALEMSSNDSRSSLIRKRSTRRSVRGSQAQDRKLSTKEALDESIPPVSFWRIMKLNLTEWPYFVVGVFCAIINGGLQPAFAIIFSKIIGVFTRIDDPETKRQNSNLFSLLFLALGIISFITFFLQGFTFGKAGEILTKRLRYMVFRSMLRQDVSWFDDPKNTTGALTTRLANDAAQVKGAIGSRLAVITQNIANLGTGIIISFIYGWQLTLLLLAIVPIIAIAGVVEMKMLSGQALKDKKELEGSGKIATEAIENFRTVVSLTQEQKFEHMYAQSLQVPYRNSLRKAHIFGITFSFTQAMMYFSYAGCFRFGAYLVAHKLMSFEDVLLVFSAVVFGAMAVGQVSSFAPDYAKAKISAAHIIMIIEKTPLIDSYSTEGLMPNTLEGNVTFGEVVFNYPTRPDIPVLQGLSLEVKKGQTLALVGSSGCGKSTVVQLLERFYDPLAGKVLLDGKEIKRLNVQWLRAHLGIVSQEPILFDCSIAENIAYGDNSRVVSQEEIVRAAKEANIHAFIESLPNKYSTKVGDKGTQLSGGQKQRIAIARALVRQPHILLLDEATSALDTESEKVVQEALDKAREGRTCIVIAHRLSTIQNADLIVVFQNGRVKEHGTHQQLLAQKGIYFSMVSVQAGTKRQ

[14] = target: T5, Solute carrier organic anion transporter family member 1A4 (Rattus norvegicus, UniProt O35913); test: TP_TRANSPORTER: inhibition of Fexofenadine uptake (Fexofenadine: 1 uM, Grapefruit juice: 5 %) in Oatp2-expressing HeLa cells; settings: human
T5 sequence (O35913 whole entry): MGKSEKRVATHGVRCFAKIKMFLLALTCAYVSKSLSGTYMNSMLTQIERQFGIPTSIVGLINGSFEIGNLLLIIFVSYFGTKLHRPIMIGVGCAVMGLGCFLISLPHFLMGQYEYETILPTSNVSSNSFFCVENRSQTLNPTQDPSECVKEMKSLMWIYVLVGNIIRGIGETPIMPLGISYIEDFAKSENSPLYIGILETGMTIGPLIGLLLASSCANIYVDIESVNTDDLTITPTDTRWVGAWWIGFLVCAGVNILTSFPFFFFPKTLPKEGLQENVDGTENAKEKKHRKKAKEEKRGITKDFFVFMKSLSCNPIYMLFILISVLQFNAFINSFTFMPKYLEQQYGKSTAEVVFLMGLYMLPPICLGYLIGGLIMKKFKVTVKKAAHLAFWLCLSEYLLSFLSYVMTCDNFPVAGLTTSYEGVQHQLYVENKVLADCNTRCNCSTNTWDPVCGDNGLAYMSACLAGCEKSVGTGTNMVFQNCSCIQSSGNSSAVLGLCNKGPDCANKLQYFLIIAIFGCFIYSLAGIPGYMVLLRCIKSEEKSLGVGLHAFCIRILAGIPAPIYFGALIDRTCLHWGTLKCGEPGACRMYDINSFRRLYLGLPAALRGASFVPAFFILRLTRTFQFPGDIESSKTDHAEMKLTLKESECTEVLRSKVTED

[15] = target: T4, Solute carrier organic anion transporter family member 1A2; test: TP_TRANSPORTER: inhibition of Fexofenadine uptake (Fexofenadine: 1 uM, Orange juice: 5 %) in OATP-A-expressing HeLa cells
[16] = target: T5, Solute carrier organic anion transporter family member 1A4; test: TP_TRANSPORTER: inhibition of Fexofenadine uptake (Fexofenadine: 1 uM, Orange juice: 5 %) in Oatp2-expressing HeLa cells; settings: human
[17] = target: T3, Solute carrier organic anion transporter family member 1A5; test: TP_TRANSPORTER: inhibition of Fexofenadine uptake (Fexofenadine: 1 uM, Orange juice: 5 %) in Oatp3-expressing HeLa cells; settings: human
[18] = target: T2, Solute carrier organic anion transporter family member 1A1; test: TP_TRANSPORTER: inhibition of Fexofenadine uptake (Fexofenadine: 1 uM, Orange juice: 5 %) in Oatp1-expressing HeLa cells; settings: human

- activity at 50 µM [2]: 22%
Compound: CC(C)=CCC/C(C)=C/COc1c2ccoc2cc2oc(=O)ccc12 [BERGAMOTTIN]

- activity at 5 µM [4]: 40%
Compound: COc1ccc([C@@H]2CC(=O)c3c(O)cc(O)cc3O2)cc1O [HESPERETIN]

- activity at 50 µM [5]: 51%
Compound: COc1ccc([C@@H]2CC(=O)c3c(O)cc(O[C@@H]4O[C@H](CO[C@@H]5O[C@@H](C)[C@H](O)[C@@H](O)[C@H]5O)[C@@H](O)[C@H](O)[C@H]4O)cc3O2)cc1O [HESPERIDIN]

- activity at 5 µM [7]: 36%
Compound: C[C@@H]1O[C@@H](O[C@H]2[C@H](Oc3cc(O)c4c(c3)O[C@H](c3ccc(O)cc3)CC4=O)O[C@H](CO)[C@@H](O)[C@@H]2O)[C@H](O)[C@H](O)[C@H]1O [NARINGIN]

- Activity [13]: is not an inhibitor [-]
Compound: GRAPEFRUIT JUICE
- Activity [11]: inhibitor [(at a rough estimate) 10 % of control]
- Activity [12]: inhibitor [(at a rough estimate) <0 % of control]
- Activity [14]: inhibitor [(at a rough estimate) 20 % of control]

The next lines start with the compound.

Compound: C/C(=C\COc1c2ccoc2cc2oc(=O)ccc12)CC[C@@H](O)C(C)(C)O
- activity at 50 µM [1]: 22%

Compound: COc1c2ccoc2cc2oc(=O)ccc12 [BERGAPTEN]
- activity at 50 µM [3]: 32%

Compound: O=C1C[C@@H](c2ccc(O)cc2)Oc2cc(O)cc(O)c21 [NARINGENIN]
- activity at 50 µM [6]: 10%

Compound: O=c1c(O)c(-c2ccc(O)c(O)c2)oc2cc(O)cc(O)c12 [QUERCETIN]
- activity at 5 µM [8]: 52%

Compound: APPLE JUICE
- Activity [9]: inhibitor [(at a rough estimate) 5 % of control]
- Activity [10]: inhibitor [(at a rough estimate) 5 % of control]

Compound: ORANGE JUICE
- Activity [15]: inhibitor [(at a rough estimate) 10 % of control]
- Activity [16]: inhibitor [(at a rough estimate) <5 % of control]
- Activity [17]: inhibitor [(at a rough estimate) 10 % of control]
- Activity [18]: inhibitor [(at a rough estimate) 25 % of control]
